Results as given in patent US20170128489A1 (priority 2014, published 2017).

NC(=O)CN(CC(N)=O)C1CCCCCCC1 [CO-IDAm, Cyclooctylimidodiacetamide]
melting point: 152 to 154 °C
